According to the supplement of paper PMC11451515:

Test system: SEM cells
Assay: cell viability relative to DMSO control; higher = less cytotoxic
Conditions: 48 h
Summary of the method: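 NOMO1, SEM and P12-Ichikawa leukemia cells spent at least four passages adapting to each medium before use. They were seeded at 500 cells/well (NOMO1, SEM) or 1000 cells/well (P12-Ichikawa) in 5 μl in 1536-well plates and pin-dosed with library compounds in DMSO at 11 threefold steps from 47 μM down to 0.79 nM. After 48 h at 37°C, CellTiter-Glo One luminescence was read. Viability is reported as a percentage of the DMSO wells on each plate, with cell-free wells as background.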

COc1cc([C@@H]2c3cc4c(cc3[C@@H](O[C@@H]3O[C@@H]5CO[C@@H](C)O[C@H]5[C@H](O)[C@H]3O)[C@H]3COC(=O)[C@H]23)OCO4)cc(OC)c1O
cell viability [%]
Conditions	HPLM + 10% dialyzed FBS	RPMI 5 mM glucose + 10% FBS	RPMI 5 mM glucose + 10% dialyzed FBS
0.000781 µM	82.6	99.8	70.3
0.00234 µM	71.6	96.1	76
0.00702 µM	81.1	91.8	76.1
0.0211 µM	74.9	70.1	64.1
0.0632 µM	50.7	46.4	37
0.19 µM	52.7	59.6	35.8
0.569 µM	49.2	45.1	34.8
1.71 µM	16.1	10.9	8.52
5.12 µM	8.68	10.3	5.58
15.4 µM	3.97	3.77	3.22
46.1 µM	2.91	3.27	2.28
